We go through 29 molecules from patent publication US12673954B2 (BRISTOL-MYERS SQUIBB COMPANY, priority 2021, dated 2026).

Test [1] relates to NF-κB pathway, THP1-Dual™ cells. Put plainly: STING reporter assay in THP1-Dual cells, NF-κB pathway (SEAP, QUANTI-Blue). The conditions noted are these: Homo sapiens, THP1-Dual, 20 h, THP1-Dual cells, 10% human plasma, 20 hours; SEAP; 100% activation = 100 μM cGAMP; read-out: NFkB (EC50 μM). Format: cell-based, human. Summed up: (§1)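 THP-1-derived dual-reporter cells treated with serially diluted compounds (final top concentration 100 μM) for 20 h at 37° C. NF-κB read as SEAP via QUANTI-Blue at OD620; IRF read as Lucia luminescence via QUANTI-Luc after 5 min. 100% activation set by 100 μM cGAMP, baseline by DMSO.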
In general terms: A reporter such as luciferase makes a cellular process visible.

The test system of test [2] is IRF pathway, THP1-Dual™ cells. Put plainly: STING reporter assay in THP1-Dual cells, IRF pathway (Lucia luciferase, QUANTI-Luc). The conditions noted are these: Homo sapiens, THP1-Dual, 20 h, THP1-Dual cells, 10% human plasma, 20 hours; Lucia luciferase; 100% activation = 100 μM cGAMP; read-out: IRF (EC50 μM). Format: cell-based, human. Summed up:
as §1

As for `Cc1ccn2ncc(C(=O)NCc3cc4cccc(C(=O)OCC(F)(F)F)c4o3)c2n1` [EXAMPLE 219, 2,2,2-Trifluoroethyl 2-((5-methylpyrazolo[1,5-a]pyrimidine-3-carboxamido)methyl)benzofuran-7-carboxylate], the EC50 (usually the concentration that produces a half-maximal response) in test [1] was determined as 10 µM; in test [2], 7.7 µM.

For `Cc1cnc2c(C(=O)NCc3cc4cccc(C(=O)OCC(F)(F)F)c4o3)cnn2c1` [EXAMPLE 220, 2,2,2-Trifluoroethyl 2-((6-methylpyrazolo[1,5-a]pyrimidine-3-carboxamido)methyl)benzofuran-7-carboxylate], the EC50 in test [1] came out at 4.8 µM; in test [2] it was 3.8 µM.

On to `Cc1ccnc2c(C(=O)NCc3cc4cccc(C(=O)OCC(F)(F)F)c4o3)cnn12` [EXAMPLE 221, 2,2,2-Trifluoroethyl 2-((7-methylpyrazolo[1,5-a]pyrimidine-3-carboxamido)methyl)benzofuran-7-carboxylate], for which the figures for the 50% effective concentration (EC50) in test [1] and in test [2] were 83 µM and 42 µM, respectively.

Take `O=C(OCC(F)(F)F)c1cccc2c(Cl)c(CNC(=O)c3cnn4cccnc34)oc12` [EXAMPLE 223, 2,2,2-Trifluoroethyl 3-chloro-2-((pyrazolo[1,5-a]pyrimidine-3-carboxamido)methyl)benzofuran-7-carboxylate]: the concentration for a half-maximal effect (EC50) is 0.62 µM in test [1] and 0.67 µM in test [2].

In the case of `CC(C)OC(=O)c1ccc(F)c2cc(CNC(=O)c3cnn4cccnc34)oc12` [EXAMPLE 224, Isopropyl 4-fluoro-2-((pyrazolo[1,5-a]pyrimidine-3-carboxamido)methyl)benzofuran-7-carboxylate], the EC50 turned out to be 4 µM in test [1] and 5.9 µM in test [2].

As for `Cc1ccc(C(=O)OC(C)C(F)(F)F)c2oc(CNC(=O)c3cnn4cccnc34)cc12` (stereo not shown) [EXAMPLE 225, 1,1,1-Trifluoropropan-2-yl 4-methyl-2-((pyrazolo[1,5-a]pyrimidine-3-carboxamido)methyl)benzofuran-7-carboxylate], the EC50 in test [1] and in test [2] was 7.5 µM throughout.

Consider `O=C(OCC(F)(F)F)c1cc(F)c(F)c2cc(CNC(=O)c3cnn4cccnc34)oc12` [EXAMPLE 226], for which the figures for the EC50 in test [1] and in test [2] were 1.3 µM and 1.4 µM, respectively.

On to `CC(OC(=O)c1cc(F)c(F)c2cc(CNC(=O)c3cnn4cccnc34)oc12)C(F)(F)F` (stereo not shown) [EXAMPLE 227, 1,1,1-Trifluoropropan-2-yl 4,5-difluoro-2-((pyrazolo[1,5-a]pyrimidine-3-carboxamido)methyl)benzofuran-7-carboxylate], for which the values for the EC50 in test [1] and in test [2] were 4.2 µM and 3.8 µM, respectively.

As to `O=C(OCC(F)(F)F)c1cc(F)cc2cc(CN3CCc4ccncc4C3=O)oc12` [EXAMPLE 228, 2,2,2-Trifluoroethyl 5-fluoro-2-((1-oxo-3,4-dihydro-2,7-naphthyridin-2(1H)-yl)methyl)benzofuran-7-carboxylate], the EC50 in test [1] worked out at 6.5 µM; in test [2], 6.1 µM.

For `O=C(NCc1cc2cc(F)cc(C(=O)OCC(F)(F)F)c2o1)c1cnccn1` [EXAMPLE 229, 2,2,2-Trifluoroethyl 5-fluoro-2-((pyrazine-2-carboxamido)methyl)benzofuran-7-carboxylate], the half-maximal effective concentration (EC50) in test [1] and in test [2] was 4.2 µM throughout.

With `O=C(OCC(F)(F)F)c1cc(F)cc2cc(CNC(=O)c3cnc4cccnn34)oc12` [EXAMPLE 230, 2,2,2-Trifluoroethyl 5-fluoro-2-((imidazo[1,2-b]pyridazine-3-carboxamido)methyl)benzofuran-7-carboxylate], the EC50 is 0.95 µM in test [1] and 0.93 µM in test [2].

For `O=C(OCC(F)(F)F)c1cc(F)cc2cc(CNC(=O)c3cnn4cccnc34)oc12` [EXAMPLE 231, 2,2,2-Trifluoroethyl 5-fluoro-2-((pyrazolo[1,5-a]pyrimidine-3-carboxamido)methyl)benzofuran-7-carboxylate], the EC50 in test [1] came to 0.65 µM; in test [2] it was 0.5 µM.

As to `CC(C)OC(=O)c1cc(F)cc2cc(CNC(=O)c3cnn4cccnc34)oc12` [EXAMPLE 232, Isopropyl 5-fluoro-2-((pyrazolo[1,5-a]pyrimidine-3-carboxamido)methyl)benzofuran-7-carboxylate], the EC50 came out at 0.92 µM in test [1] and 1 µM in test [2].

On to `O=C(OC1COC1)c1cc(F)cc2cc(CNC(=O)c3cnn4cccnc34)oc12` [EXAMPLE 233, Oxetan-3-yl 5-fluoro-2-((pyrazolo[1,5-a]pyrimidine-3-carboxamido)methyl)benzofuran-7-carboxylate], for which the EC50 was found to be 2 µM in test [1] and 1.7 µM in test [2].

On to `O=C(OC1CCC1)c1cc(F)cc2cc(CNC(=O)c3cnn4cccnc34)oc12` [EXAMPLE 234, Cyclobutyl 5-fluoro-2-((pyrazolo[1,5-a]pyrimidine-3-carboxamido)methyl)benzofuran-7-carboxylate], for which the concentration for a half-maximal effect (EC50) in test [1] and in test [2] was 1.1 µM in each case.

With `O=C(OCC(F)F)c1cc(F)cc2cc(CNC(=O)c3cnn4cccnc34)oc12` [EXAMPLE 235, 2,2-Difluoroethyl 5-fluoro-2-((pyrazolo[1,5-a]pyrimidine-3-carboxamido)methyl)benzofuran-7-carboxylate], the EC50 stood at 0.68 µM in test [1] and 0.69 µM in test [2].

Take `O=C(OC1CC(F)(F)C1)c1cc(F)cc2cc(CNC(=O)c3cnn4cccnc34)oc12` [EXAMPLE 236, 3,3-Difluorocyclobutyl 5-fluoro-2-((pyrazolo[1,5-a]pyrimidine-3-carboxamido)methyl)benzofuran-7-carboxylate]: the EC50 amounted to 1.8 µM in test [1] and 1.3 µM in test [2].

For the molecule `O=C(OC(CF)CF)c1cc(F)cc2cc(CNC(=O)c3cnn4cccnc34)oc12` [EXAMPLE 237, 1,3-Difluoropropan-2-yl 5-fluoro-2-((pyrazolo[1,5-a]pyrimidine-3-carboxamido)methyl)benzofuran-7-carboxylate], the EC50 in test [1] and in test [2] was 1.2 µM each time.

With `O=C(OC(C(F)(F)F)C(F)(F)F)c1cc(F)cc2cc(CNC(=O)c3cnn4cccnc34)oc12` [EXAMPLE 238, 1,1,1,3,3,3-Hexafluoropropan-2-yl 5-fluoro-2-((pyrazolo[1,5-a]pyrimidine-3-carboxamido)methyl)benzofuran-7-carboxylate], the values for the half-maximal effective concentration (EC50) in test [1] and in test [2] were 1.7 µM and 1.6 µM, respectively.

Regarding `O=C(OCC(F)(F)F)c1cc(Cl)cc2cc(CNC(=O)c3cnn4cccnc34)oc12` [EXAMPLE 239, 2,2,2-Trifluoroethyl 5-chloro-2-((pyrazolo[1,5-a]pyrimidine-3-carboxamido)methyl)benzofuran-7-carboxylate], the values for the EC50 in test [1] and in test [2] were 0.39 µM and 0.53 µM, respectively.

Regarding `CC(C)OC(=O)c1cc(Cl)cc2cc(CNC(=O)c3cnn4cccnc34)oc12` [EXAMPLE 240, Isopropyl 5-chloro-2-((pyrazolo[1,5-a]pyrimidine-3-carboxamido)methyl)benzofuran-7-carboxylate], the EC50 in test [1] is 0.61 µM; in test [2], 0.78 µM.

Turning to `N#CC1CC(OC(=O)c2cc(Cl)cc3cc(CNC(=O)c4cnn5cccnc45)oc23)C1` (stereo not shown) [EXAMPLE 241, 3-Cyanocyclobutyl 5-chloro-2-((pyrazolo[1,5-a]pyrimidine-3-carboxamido)methyl)benzofuran-7-carboxylate], the half-maximal effective concentration (EC50) in test [1] and in test [2] was 2.3 µM in each case.

On to `COC[C@@H](C)OC(=O)c1cc(Cl)cc2cc(CNC(=O)c3cnn4cccnc34)oc12` [EXAMPLE 242, (R)-1-Methoxypropan-2-yl 5-chloro-2-((pyrazolo[1,5-a]pyrimidine-3-carboxamido)methyl)benzofuran-7-carboxylate], for which the figures for the EC50 in test [1] and in test [2] were 2.1 µM and 2.4 µM, respectively.

In the case of `O=C(OC1CCCC1)c1cc(Cl)cc2cc(CNC(=O)c3cnn4cccnc34)oc12` [EXAMPLE 243, Cyclopentyl 5-chloro-2-((pyrazolo[1,5-a]pyrimidine-3-carboxamido)methyl)benzofuran-7-carboxylate], the concentration for a half-maximal effect (EC50) in test [1] came to 1.9 µM; in test [2] it was 1.6 µM.

On to `O=C(OC1CCCCC1)c1cc(Cl)cc2cc(CNC(=O)c3cnn4cccnc34)oc12` [EXAMPLE 244, Cyclohexyl 5-chloro-2-((pyrazolo[1,5-a]pyrimidine-3-carboxamido)methyl)benzofuran-7-carboxylate], for which the EC50 in test [1] was 1.9 µM; in test [2] it was 2 µM.

On to `O=C(OC1CC(F)(F)C1)c1cc(Cl)cc2cc(CNC(=O)c3cnn4cccnc34)oc12` [EXAMPLE 245, 3,3-Difluorocyclobutyl 5-chloro-2-((pyrazolo[1,5-a]pyrimidine-3-carboxamido)methyl)benzofuran-7-carboxylate], for which the EC50 turned out to be 1 µM in test [1] and 1.8 µM in test [2].

For the molecule `O=C(OC(CF)CF)c1cc(Cl)cc2cc(CNC(=O)c3cnn4cccnc34)oc12` [EXAMPLE 246, 1,3-Difluoropropan-2-yl 5-chloro-2-((pyrazolo[1,5-a]pyrimidine-3-carboxamido)methyl)benzofuran-7-carboxylate], the EC50 in test [1] came out at 1 µM; in test [2], 1.1 µM.

As to `CC(C)(C)OC(=O)N1CC(OC(=O)c2cc(Cl)cc3cc(CNC(=O)c4cnn5cccnc45)oc23)C1` [EXAMPLE 247, Tert-butyl 3-((5-chloro-2-((pyrazolo[1,5-a]pyrimidine-3-carboxamido)methyl)benzofuran-7-carbonyl)oxy)azetidine-1-carboxylate], the concentration for a half-maximal effect (EC50) in test [1] came to 13 µM; in test [2] it was 9 µM.

As for `O=C(OC1CNC1)c1cc(Cl)cc2cc(CNC(=O)c3cnn4cccnc34)oc12` [EXAMPLE 248, Azetidin-3-yl 5-chloro-2-((pyrazolo[1,5-a]pyrimidine-3-carboxamido)methyl)benzofuran-7-carboxylate], the EC50 is 98 µM in test [1] and 73 µM in test [2].
